In patent US10035799B2, “COMT inhibiting methods and compositions” (Lieber Institute for Brain Development, priority 2015, dated 2018):

What follows are compounds tested against T1, catechol-O-methyltransferase (COMT) (Homo sapiens, UniProt P21964) (assay: COMT inhibition assay (HTRF, production of S-adenosyl homocysteine)). Settings: recombinant human COMT, HTRF SAH production; MB-COMT or S-COMT not stated for Table 1.
T1 construct: M51A variant) was expressed in HEK 293F cells
T1 sequence (P21964 52-271 limits assumed): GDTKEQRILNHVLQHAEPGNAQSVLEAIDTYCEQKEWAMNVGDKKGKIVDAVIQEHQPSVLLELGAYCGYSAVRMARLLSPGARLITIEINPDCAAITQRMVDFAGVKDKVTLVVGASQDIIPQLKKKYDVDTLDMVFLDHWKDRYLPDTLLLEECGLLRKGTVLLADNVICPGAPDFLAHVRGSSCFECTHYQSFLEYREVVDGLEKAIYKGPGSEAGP
Type: biochemical
Description: The ability of compounds to inhibit the activity of catechol-O-methyltransferase (COMT) was determined by a homogenous time-resolved fluorescent (HTRF) assay (Lina et al, 2012; kit from CisBio, Codolet, France). This assay measures the production of S-adenosyl homocysteine (SAH) from the methyl donor S-adenosyl methionine. Recombinant human membrane bound COMT (MB-COMT; M51A variant) was expressed in HEK 293F cells using 293Fectin (Life Technologies, Gent, Belgium) and membranes prepared. The membranes were re-suspended in buffer (20 mM Tris/HCl pH 7; 10 mM glycerol; 2 mM MgCl2; 10 mM NaCl), aliquoted and stored at −80° C. Recombinant human soluble COMT(S-COMT), Va1158 variant and a hexa-His tag on the N-terminus, was purified using Ni-NTA chromatography, the His tag removed and stored in buffer as above.
For the human MB-COMT assay, membranes (62 ng/well) were incubated with SAM (20 μM final, CisBio) and dopamine (1.5 μM final; Sigma H8502, Diegem, Belgium) in the presence or absence of varying concentrations (typically 10 concentrations ranging from 10 μM to 0.1 nM) of compound for 40 min at 37° C. in 384-well microtitre plates (10 μl per well final volume). The reaction was terminated by the addition of acylation buffer and the amount of SAH produced determined according to manufacturer's instructions. Specific inhibition as that inhibited by a high concentration of tolcapone (10 μM; synthesised at UCB) and all experiments were validated using a control curve to tolcapone.
The human S-COMT assay was performed as above except that 0.15 ng enzyme/well was incubated with SAM (20 μM final) and dopamine (100 μM final) for 15 min at 37° C. and SAH production determined.
HTRF readings were performed using a Perkin Elmer Envision and results expressed as concentration of SAH produced using a standard curve. Results were analysed using non-linear regression to the 4-parameter logistic equation and pIC50 (−log 10 concentration of drug which inhibits enzyme activity/SAH production by 50%) determined.

Row | Activity range (pIC50, COMT inhibition) | Compound
1 | +++ (a pIC50 of above about 7) | O=S(=O)(c1ccc(O)c2ncccc12)N1CCc2cccnc2C1 [Example 67, 5-(6,8-dihydro-5H-1,7-naphthyridin-7-ylsulfonyl)quinolin-8-ol]
2 | +++ (a pIC50 of above about 7) | O=S(=O)(c1ccccc1C(F)(F)F)c1ccc(O)c2ncccc12 [Example 21, 5-[2-(trifluoromethyl)phenyl]sulfonylquinolin-8-ol]
3 | +++ (a pIC50 of above about 7) | Cc1cccc(N2CCC(S(=O)(=O)c3ccc(O)c4ncccc34)CC2)c1C [Example 39, 5-[[1-(2,3-dimethylphenyl)-4-piperidyl]sulfonyl]quinolin-8-ol]
4 | +++ (a pIC50 of above about 7) | O=S(=O)(c1ccc(O)c2ncccc12)N1CCCC1c1ccccc1 (centres unmarked) [Example 58, 5-(2-phenylpyrrolidin-1-yl)sulfonylquinolin-8-ol]
5 | +++ (a pIC50 of above about 7) | CN(Cc1ccccc1F)S(=O)(=O)c1ccc(O)c2ncccc12 [Example 52, N-[(2-fluorophenyl)methyl]-8-hydroxy-N-methyl-quinoline-5-sulfonamide]
6 | + (a pIC50 of from about 4.5 to 6) | O=S(=O)(c1cc(Cl)c(O)c2ncccc12)N1CCN(Cc2ccc(F)cc2)CC1 [Example 112, 7-chloro-5-[4-[(4-fluorophenyl)methyl]piperazin-1-yl]sulfonyl-quinolin-8-ol]
7 | +++ (a pIC50 of above about 7) | CN(Cc1ccc(F)cc1)S(=O)(=O)c1ccc(O)c2ncccc12 [Example 49, N-[(4-fluorophenyl)methyl]-8-hydroxy-N-methyl-quinoline-5-sulfonamide]
8 | +++ (a pIC50 of above about 7) | O=S(=O)(c1cc(F)c(O)c2ncccc12)N1CCCC1 [Example 113, 7-fluoro-5-pyrrolidin-1-ylsulfonyl-quinolin-8-ol]
9 | +++ (a pIC50 of above about 7) | O=S(=O)(c1ccc(F)cc1)c1ccc(O)c2ncccc12 [Example 2, 5-(4-fluorophenyl)sulfonylquinolin-8-ol]
10 | +++ (a pIC50 of above about 7) | O=S(=O)(c1cccc(-c2ccncc2)c1)c1ccc(O)c2ncccc12 [Example 23, 5-[3-(4-pyridyl)phenyl]sulfonylquinolin-8-ol]
11 | +++ (a pIC50 of above about 7) | CN(Cc1ccccc1)S(=O)(=O)c1ccc(O)c2ncccc12 [Example 45, N-benzyl-8-hydroxy-N-methylquinoline-5-sulfonamide]
12 | + (a pIC50 of from about 4.5 to 6) | O=S(=O)(c1ccc(O)c2ncccc12)N1CCN(C(c2ccc(F)cc2)c2ccc(F)cc2)CC1 [Example 95, 5-[4-[bis(4-fluorophenyl)methyl]piperazin-1-yl]sulfonylquinolin-8-ol]
13 | +++ (a pIC50 of above about 7) | COc1cccc(CN(C)S(=O)(=O)c2ccc(O)c3ncccc23)c1 [Example 42, 8-hydroxy-N-[(3-methoxyphenyl)methyl]-N-methyl-quinoline-5-sulfonamide]
14 | +++ (a pIC50 of above about 7) | O=S(=O)(c1ccc(O)c2ncccc12)N1CCC(c2ccccc2)CC1 [Example 73, 5-[(4-phenyl-1-piperidyl)sulfonyl]quinolin-8-ol]
15 | +++ (a pIC50 of above about 7) | O=S(=O)(c1cccc(-c2cccc3[nH]ncc23)c1)c1ccc(O)c2ncccc12 [Example 26, 5-[3-(1H-indazol-4-yl)phenyl]sulfonylquinolin-8-ol]
16 | +++ (a pIC50 of above about 7) | Cc1ccc(S(=O)(=O)c2ccc(O)c3ncccc23)c(C)c1 [Example 10, 5-(2,4-dimethylphenyl)sulfonylquinolin-8-ol]
17 | +++ (a pIC50 of above about 7) | Cc1ccc(S(=O)(=O)c2ccc(O)c3ncccc23)cc1 [Example 1, 5-tosylquinolin-8-ol]
18 | +++ (a pIC50 of above about 7) | O=S(=O)(c1ccccn1)c1ccc(O)c2ncccc12 [Example 16, 5-(2-pyridylsulfonyl)quinolin-8-ol]
19 | +++ (a pIC50 of above about 7) | O=S(=O)(c1cccc(-c2ccccc2)c1)c1ccc(O)c2ncccc12 [Example 6, 5-(3-phenylphenyl)sulfonylquinolin-8-ol]
20 | +++ (a pIC50 of above about 7) | O=S(=O)(c1ccc(O)c2ncccc12)C1CCCCC1 [Example 30, 5-cyclohexylsulfonylquinolin-8-ol]
21 | +++ (a pIC50 of above about 7) | O=S(=O)(c1ccc(O)c2ncccc12)N1CCCC1Cc1ccccc1 (centres unmarked) [Example 75, 5-(2-benzylpyrrolidin-1-yl)sulfonylquinolin-8-ol]
22 | + (a pIC50 of from about 4.5 to 6) | C[C@H](c1ccccc1)N(C)S(=O)(=O)c1cc(Br)c(O)c2ncccc12 [Example 120, 7-bromo-8-hydroxy-N-methyl-N-[(1R)-1-phenylethyl]quinoline-5-sulfonamide]
23 | +++ (a pIC50 of above about 7) | CN(Cc1ccc(C(F)(F)F)cc1)S(=O)(=O)c1ccc(O)c2ncccc12 [Example 65, N-[(4-(trifluoromethyl)phenyl)methyl]-8-hydroxy-N-methyl-quinoline-5-sulfonamide]
24 | +++ (a pIC50 of above about 7) | COc1ccc(S(=O)(=O)c2ccc(O)c3ncccc23)cc1 [Example 18, 5-(4-methoxyphenyl)sulfonylquinolin-8-ol]

Row | Compound | Activity range (pIC50, COMT inhibition)
25 | O=S(=O)(c1ccc(O)c2ncccc12)N1CCN(c2ccc(C(F)(F)F)cc2)CC1 [Example 94, 5-[4-[4-(trifluoromethyl)phenyl]piperazin-1-yl]sulfonylquinolin-8-ol] | ++ (a pIC50 of from about great than 6 to 7)
26 | C[C@@H]1CCCN1S(=O)(=O)c1cc(Cl)c(O)c2ncccc12 [Example 119, 7-chloro-5-[(2R)-2-methylpyrrolidin-1-yl]sulfonyl-quinolin-8-ol] | ++ (a pIC50 of from about great than 6 to 7)
27 | C[C@H]1CCCN1S(=O)(=O)c1cc(Cl)c(O)c2ncccc12 [Example 118, 7-chloro-5-[(2S)-2-methylpyrrolidin-1-yl]sulfonyl-quinolin-8-ol] | ++ (a pIC50 of from about great than 6 to 7)
28 | O=S(=O)(c1ccc(O)c2ncccc12)N1CC(Oc2ccc(OC(F)(F)F)cc2)C1 [Example 99, 5-[3-[4-(trifluoromethoxy)phenoxy]azetidin-1-yl]sulfonylquinolin-8-ol] | ++ (a pIC50 of from about great than 6 to 7)
29 | Cc1ccc(S(=O)(=O)c2cc(I)c(O)c3ncccc23)cc1 [Example 107, 7-iodo-5-(p-tolylsulfonyl)quinolin-8-ol] | ++ (a pIC50 of from about great than 6 to 7)
30 | O=S(=O)(c1ccc(Cl)c(Cl)c1)c1ccc(O)c2ncccc12 [Example 15, 5-(3,4-dichlorophenyl)sulfonylquinolin-8-ol] | ++ (a pIC50 of from about great than 6 to 7)
31 | O=S(=O)(c1ccc(O)c2ncccc12)C1CCN(Cc2ccc(F)cc2)CC1 [Example 35, 5-[[1-[(4-fluorophenyl)methyl]-4-piperidyl]sulfonyl]quinolin-8-ol] | ++ (a pIC50 of from about great than 6 to 7)
32 | O=S(=O)(c1ccc(O)c2ncccc12)N1CCCC1c1ccccc1C(F)(F)F (centres unmarked) [Example 81, 5-[2-[2-(trifluoromethyl)phenyl]pyrrolidin-1-yl]sulfonylquinolin-8-ol] | ++ (a pIC50 of from about great than 6 to 7)
33 | C[C@H](c1ccccc1)N(C)S(=O)(=O)c1cc(Cl)c(O)c2ncccc12 [Example 117, 7-chloro-8-hydroxy-N-methyl-N-[(1R)-1-phenylethyl]quinoline-5-sulfonamide] | ++ (a pIC50 of from about great than 6 to 7)
34 | O=S(=O)(c1ccc(O)c2ncccc12)N1CCN(c2ccc(F)cc2)CC1 [Example 96, 5-[4-(4-fluorophenyl)piperazin-1-yl]sulfonylquinolin-8-ol] | ++ (a pIC50 of from about great than 6 to 7)
35 | CN(Cc1ccc2ccccc2c1)S(=O)(=O)c1ccc(O)c2ncccc12 [Example 55, 8-hydroxy-N-methyl-N-(2-naphthylmethyl)quinoline-5-sulfonamide] | ++ (a pIC50 of from about great than 6 to 7)
